From US8715537B2, “Molecular precursor methods and materials for optoelectronics” (Precursor Energetics, Inc., priority 2009, dated 2014)

What was measured:
[1] = Thermogravimetric analysis (TGA): transition of molecular precursor into material; assay type: physicochemical; settings: for TGA transition ending (completed) temperature / TGA transition midpoint: transition of precursor into material; for TGA yield at 400° C.: at about 400° C.; for TGA yield for the transition: residue at end of transition
Description: Thermogravimetric analysis (TGA) was performed using a Q50 Thermogravimetric Analyzer (TA Instruments, New Castle, Del.). NMR data were recorded using a Varian 400 MHz spectrometer.

[2] = Solubility of molecular precursor in organic solvents; assay type: physicochemical; settings: for Solubility: benzene: solvent benzene; for Solubility: benzene / Solubility: toluene: 'heat'; for Solubility: diethyl ether: solvent diethyl ether; for Solubility: pentane: solvent pentane; for Solubility: toluene: solvent toluene; for Solubility: THF: solvent THF; for Solubility: CHCl3: solvent CHCl3

Substance | TGA transition ending (completed) temperature [1] | TGA yield at 400° C. [1] | TGA yield for the transition [1] | Solubility: benzene [2] | Solubility: diethyl ether [2] | Solubility: pentane [2] | Solubility: toluene [2] | Solubility: THF [2] | TGA transition midpoint [1] | Solubility: CHCl3 [2]
Cu—(Se^tBu)3Ga^tBu [Example 5] | about 210 °C | – | 48.3 % (w/w) | ss heat | nil | nil | s heat | – | – | –
Cu—(S^tBu)3In^tBu [Example 4] | about 240 °C | – | 48.1 % (w/w) | ss heat | nil | nil | s heat | ss | – | –
Cu—(Se^tBu)3In^iPr [Example 8] | 199 °C | – | 52.1 % (w/w) | heat | ss | nil | – | – | 192 °C | –
Cu—(Se^tBu)3In^nBu [Example 3] | 196 °C | – | 48.5 % (w/w) | vs | vs | – | vs | vs | 174 °C | vs
Cu—(S^tBu)3In^nBu [Example 2] | 248 °C | – | 50.4 % (w/w) | vs | vs | – | vs | vs | 235 °C | vs
Cu—(Se^tBu)3In^tBu [Example 7] | about 192 °C | – | 53.1 % (w/w) | ss heat | nil | nil | heat | ss | – | –
Cu—(Se^tBu)3In^sBu [Example 14] | 204 °C | – | 52.3 % (w/w) | – | – | – | – | – | 191 °C | –
Cu—(S^tBu)2(S^tBu)In^tBu [Example 9] | 295 °C | – | 47.9 % (w/w) | – | – | – | – | – | 235 °C | –
Cu—(S^tBu)3Ga^iPr [Example 12] | 220 °C | – | 46.0 % (w/w) | – | – | – | – | – | – | –
Cu—(S^tBu)3In^iPr [Example 1] | 227 °C | – | 50.4 % (w/w) | s heat | ss | nil | – | – | 220 °C | –

Results, then the substance that gave them:

TGA transition ending (completed) temperature [1] | TGA yield at 400° C. [1] | TGA yield for the transition [1] | Solubility: benzene [2] | Solubility: diethyl ether [2] | Solubility: pentane [2] | Solubility: toluene [2] | Solubility: THF [2] | TGA transition midpoint [1] | Solubility: CHCl3 [2] | Substance
about 195 °C | 45.1 % (w/w) | 50.4 % (w/w) | – | – | – | – | – | – | – | Ag—(Se^tBu)3Ga^sBu [Example 27]
about 205 °C | – | 56.2 % (w/w) | – | – | – | – | – | – | – | Ag—(Se^tBu)3In^iPr [Example 28]
about 205 °C | 52.5 % (w/w) | 54.6 % (w/w) | – | – | – | – | – | – | – | Ag—(Se^tBu)3In^nBu [Example 24]
about 210 °C | 47.7 % (w/w) | 53.9 % (w/w) | – | – | – | – | – | – | – | Ag—(Se^tBu)3Ga^nBu [Example 25]
about 195 °C | – | 54.9 % (w/w) | – | – | – | – | – | – | – | Ag—(Se^tBu)3In^sBu [Example 26]
